The experiment relates to human RIG-1 promoter (RIG-PROM-LUC reporter). Briefly: RIG-PROM-LUC luciferase reporter activity in response to inducers in transfected human cells. The format is cell-based. A general note: Reporter assays use an easily measured gene product as a stand-in for the process of interest.

For `CC1=C(/C=C/C(C)=C/C=C/C(C)=C/C(=O)O)C(C)(C)CCC1` [retinoic acid, all Trans-retinoic acid], the “activation of promoter activity (RIG-PROM-LUC)” value (FM516 and HeLa cells, IFN-β induction greater than PolyIC:PolyIC and least with retinoic acid, FIG. 2) is given as “robust activation”. Also, where the note is “depending on the cell line (FM516, T47D, HeLa, PHFA), inducer 6 h then overnight incubation”, the “response of reporter compared to untreated controls” value is recorded as “around 1.5 fold”.

(Values after patent US20080108067A1, “Cloning of the retinoic acid inducible gene-1 promoter and uses thereof” (priority 2004, published 2008).)
